Reference: article PMC10818931, “In Vitro Evaluation of Drug–Drug Interaction Potential of Epetraborole, a Novel Bacterial Leucyl-tRNA Synthetase Inhibitor” (Pharmaceuticals, 2024)

Tests used:
Assay type in all cases: in vitro ADME
MATE2K = target: T1, MATE2K (Homo sapiens, UniProt Q86VL8); test: Substrate potential in transporter-transfected MDCK cells
T1 construct: host or cells: MDCK
Procedure: (§1) The uptake of a probe substrate of each transporter was conducted in parallel with the test article in separate wells of the same batch of vector control and transporter-transfected cells. Cells were incubated at 37 °C with 5% CO2 with 500 μL of dosing solution for different periods of time.

OAT1 = target: T2, OAT1 (Homo sapiens, UniProt Q4U2R8); test: as above
T2 construct: host or cells: MDCK
T2 sequence (Q4U2R8 1-563): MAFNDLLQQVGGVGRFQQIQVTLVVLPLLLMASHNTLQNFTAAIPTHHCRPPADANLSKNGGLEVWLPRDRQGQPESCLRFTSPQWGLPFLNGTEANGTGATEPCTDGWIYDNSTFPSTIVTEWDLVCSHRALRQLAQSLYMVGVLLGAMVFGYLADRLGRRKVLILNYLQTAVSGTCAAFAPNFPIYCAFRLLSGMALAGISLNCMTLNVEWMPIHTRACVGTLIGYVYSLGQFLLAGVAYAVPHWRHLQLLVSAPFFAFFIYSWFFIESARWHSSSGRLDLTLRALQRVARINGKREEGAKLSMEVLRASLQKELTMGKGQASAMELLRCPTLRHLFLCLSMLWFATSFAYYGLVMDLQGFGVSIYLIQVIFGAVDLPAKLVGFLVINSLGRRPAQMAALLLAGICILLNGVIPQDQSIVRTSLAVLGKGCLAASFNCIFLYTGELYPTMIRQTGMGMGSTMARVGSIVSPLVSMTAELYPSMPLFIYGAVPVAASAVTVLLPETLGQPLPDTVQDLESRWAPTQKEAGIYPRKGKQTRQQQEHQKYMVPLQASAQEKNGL
Procedure: as §1

OAT3 = target: T3, OAT3 (Homo sapiens, UniProt Q8TCC7); test: as above
T3 construct: host or cells: MDCK
T3 sequence (Q8TCC7 1-542): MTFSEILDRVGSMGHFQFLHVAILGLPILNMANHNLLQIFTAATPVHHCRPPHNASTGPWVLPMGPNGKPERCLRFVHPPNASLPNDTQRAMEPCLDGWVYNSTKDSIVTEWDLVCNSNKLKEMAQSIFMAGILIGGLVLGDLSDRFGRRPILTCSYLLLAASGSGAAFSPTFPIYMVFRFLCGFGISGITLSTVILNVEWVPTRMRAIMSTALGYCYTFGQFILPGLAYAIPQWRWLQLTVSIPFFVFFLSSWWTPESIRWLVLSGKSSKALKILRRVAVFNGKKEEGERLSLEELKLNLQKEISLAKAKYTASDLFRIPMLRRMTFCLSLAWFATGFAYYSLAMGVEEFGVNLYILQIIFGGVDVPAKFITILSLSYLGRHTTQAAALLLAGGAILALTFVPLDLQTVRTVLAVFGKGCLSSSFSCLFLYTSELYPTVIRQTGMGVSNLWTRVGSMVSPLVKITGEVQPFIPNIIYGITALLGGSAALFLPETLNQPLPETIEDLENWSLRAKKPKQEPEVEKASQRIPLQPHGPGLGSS
Procedure: as §1

OCT2 = target: T4, OCT2 (Homo sapiens, UniProt O15244); test: as above
T4 construct: host or cells: MDCK
T4 sequence (O15244 1-555): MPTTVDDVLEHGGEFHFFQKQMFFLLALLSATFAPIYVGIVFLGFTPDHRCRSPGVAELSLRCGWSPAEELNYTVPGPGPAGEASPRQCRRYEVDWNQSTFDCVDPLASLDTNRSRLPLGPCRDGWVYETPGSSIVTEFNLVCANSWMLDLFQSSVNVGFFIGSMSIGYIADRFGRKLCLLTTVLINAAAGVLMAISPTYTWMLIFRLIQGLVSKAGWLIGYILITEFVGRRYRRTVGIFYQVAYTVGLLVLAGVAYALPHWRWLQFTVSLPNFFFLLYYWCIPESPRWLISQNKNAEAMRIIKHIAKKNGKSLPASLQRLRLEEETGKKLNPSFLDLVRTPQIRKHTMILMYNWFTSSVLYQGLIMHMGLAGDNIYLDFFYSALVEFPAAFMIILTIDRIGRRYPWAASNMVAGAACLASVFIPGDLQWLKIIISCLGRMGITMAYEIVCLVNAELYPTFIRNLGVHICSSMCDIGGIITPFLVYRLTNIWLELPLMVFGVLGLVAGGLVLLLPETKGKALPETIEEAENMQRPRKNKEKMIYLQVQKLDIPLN
Procedure: as §1

BCRP = target: T5, BCRP (Homo sapiens, UniProt Q9UNQ0); test: Inhibition of BCRP-mediated efflux transport in BCRP-MDCK cells
T5 construct: host or cells: MDCK (BCRP-MDCK)
T5 sequence (Q9UNQ0 1-655): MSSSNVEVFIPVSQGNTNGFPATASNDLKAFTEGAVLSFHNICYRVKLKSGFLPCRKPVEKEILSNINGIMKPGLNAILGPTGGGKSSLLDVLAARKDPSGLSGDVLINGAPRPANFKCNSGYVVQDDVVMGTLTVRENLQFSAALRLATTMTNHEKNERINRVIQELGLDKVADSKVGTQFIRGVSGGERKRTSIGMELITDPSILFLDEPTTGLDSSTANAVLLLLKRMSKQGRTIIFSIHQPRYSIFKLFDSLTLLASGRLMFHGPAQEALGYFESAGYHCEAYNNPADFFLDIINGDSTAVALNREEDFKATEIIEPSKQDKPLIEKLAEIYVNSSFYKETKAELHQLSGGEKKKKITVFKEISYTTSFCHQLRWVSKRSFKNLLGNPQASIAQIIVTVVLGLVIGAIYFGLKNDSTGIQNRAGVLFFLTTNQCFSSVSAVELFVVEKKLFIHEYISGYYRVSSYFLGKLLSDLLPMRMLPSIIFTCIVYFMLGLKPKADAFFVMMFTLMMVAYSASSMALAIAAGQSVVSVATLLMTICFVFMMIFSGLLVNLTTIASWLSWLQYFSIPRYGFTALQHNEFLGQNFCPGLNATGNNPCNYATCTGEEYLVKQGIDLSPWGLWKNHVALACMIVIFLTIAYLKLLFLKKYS
Procedure: A preincubation with EBO or known inhibitor was performed on both sides to preload the cells. After 30 min, the preincubation solution was aspirated. Aliquots of fresh dosing solution with or without EBO or known inhibitor (0.55 mL for AP-to-BL, 1.55 mL for BL-to-AP) were added to the donor compartment, and HBSSg_7.4 with or without EBO or known inhibitor (1.5 mL for AP-to-BL, 0.5 mL for BL-to-AP) were added to the receiver compartment. Receiver samples (200 µL) and donor samples (50 µL) were taken at preselected time points.
Cell monolayer integrity was examined using lucifer yellow (excitation 450 nm and emission 538 nm). The concentrations of the probe substrate in the donor and receiver samples, as well as EBO in dosing solutions, were determined by LC-MS/MS.

T1 sequence (Q86VL8 1-566 isoform Q86VL8-3): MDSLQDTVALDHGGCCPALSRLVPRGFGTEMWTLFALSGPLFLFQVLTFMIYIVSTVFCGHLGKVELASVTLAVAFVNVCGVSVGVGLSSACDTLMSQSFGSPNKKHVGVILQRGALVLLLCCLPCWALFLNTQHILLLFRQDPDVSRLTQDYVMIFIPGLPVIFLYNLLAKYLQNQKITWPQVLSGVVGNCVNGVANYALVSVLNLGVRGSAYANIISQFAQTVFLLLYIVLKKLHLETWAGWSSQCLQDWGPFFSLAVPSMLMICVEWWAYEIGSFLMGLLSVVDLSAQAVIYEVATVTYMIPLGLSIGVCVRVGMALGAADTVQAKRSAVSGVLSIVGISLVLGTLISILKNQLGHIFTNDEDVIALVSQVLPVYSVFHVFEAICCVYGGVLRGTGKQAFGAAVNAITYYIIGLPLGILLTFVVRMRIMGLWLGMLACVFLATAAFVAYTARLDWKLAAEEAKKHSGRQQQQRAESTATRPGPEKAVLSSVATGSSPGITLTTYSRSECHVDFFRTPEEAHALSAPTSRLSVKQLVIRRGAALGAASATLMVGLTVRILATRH

Structure (SMILES) | Influx ratio (MATE2K) | as a Substrate (MATE2K) | Influx ratio (OAT1) | as a Substrate (OAT1) | Influx ratio (OAT3) | as a Substrate (OAT3) | as a Substrate (OCT2) | Influx ratio (OCT2; 5 µM) | inhibition at 300 µM (BCRP; human, BCRP-MDCK cells, pH 7.4, at 300 μM) [%] | inhibition at 1000 µM (BCRP; human, BCRP-MDCK cells, pH 7.4, at 1000 µM) [%] | inhibition at 500 µM (BCRP; human, BCRP-MDCK cells, pH 7.4, at 500 μM) [%] | IC50 (BCRP; read-out: as an Inhibitor, IC50) [µM]
NC[C@H]1OB(O)c2c(OCCCO)cccc21 [EBO, Epetraborole] | < 2 | No | < 2 | No | < 2 | No | could potentially be a substrate and Yes | 3.44 | 13 | 27 |  | 
NC[C@H]1OB(O)c2c(OCCC(=O)O)cccc21 [M3] | < 2 | No | < 2 | No | < 2 | No | not a substrate and No |  |  |  | 44 | > 500
